Like-named read-outs stand apart in the source and are kept apart here.
Columns and labels:
human purified αVβ5 = molecular target: T1, human purified αVβ5 (Homo sapiens, UniProt P06756+P18084); assay: In vitro solid phase purified αvβ5 binding assay (vitronectin/αVβ5); conditions: inhibition of vitronectin binding to immobilized αVβ5; read-out: Antagonist IC50 Activity αVβ5
T1 construct: purchased Chemicon International, Inc
Procedure: (§1) The vitronectin/αvβ3 binding assay methods were derived from Mehta et al. (Biochem J,. 1998, 330, 861). Human αvβ3 (Chemicon International Inc., Temecula, Calif.), at a concentration of 1 μg/ml dissolved in Tris buffer (20 mM Tris, 1 mM CaCl2, 1 mM MgCl2, 10 μM MnCl2, 150 mM NaCl), was immobilized on Immulon 96 well plates (Dynex Technologies, Chantilly, Va.) overnight at 4° C. Plates were washed and treated with blocking buffer (3% BSA in Tris buffer) for 2 h at 37° C. Plates were then rinsed 2 times with assay buffer comprised of Tris buffer. Synthesized compounds were added to wells in duplicate immediately prior to the addition of 2 nM vitronectin (Sigma, St. Louis, Mo.). Following a 3 hour incubation at 37° C., plates were washed 5 times in assay buffer. An anti-human vitronectin IgG rabbit polyclonal antibody (Calbiochem, San Diego, Calif.) was added (1:2000) and plates were incubated for 1 hour at room temperature. VectaStain ABC peroxidase kit reagents (Vector Laboratories, Burlingame, Calif.) employing a biotin labeled anti-rabbit IgG, were utilized for detection of bound antibody. Plates were read at 490 nm on a Molecular Devices (Sunnyvale, Calif.) microplate reader.
In Vitro Solid Phase Purified αvβ5 Binding Assay
The vitronectin/αVβ5 binding assay method was performed in the same manner as the vitronectin/αVβ3 binding assay of Example 2, with the difference that 1 μg/mL of human purified αVβ5 (Chemicon International, Inc.) was immobilized onto Immulon 96 well plates (Dynex Technologies) instead of αVβ3. All other aspects of the assay including buffers, reagents and incubation times remain unchanged.

Human αvβ3 = molecular target: T2, Human αvβ3 (Homo sapiens, UniProt P05106+P06756); assay: In vitro solid phase purified αvβ3 binding assay (vitronectin/αvβ3); conditions: for IC50: read-out: Antagonist IC50 Activity αVβ3
T2 construct: purchased Chemicon International Inc., Temecula, Calif
T2 sequence (P06756 31-889 limits assumed): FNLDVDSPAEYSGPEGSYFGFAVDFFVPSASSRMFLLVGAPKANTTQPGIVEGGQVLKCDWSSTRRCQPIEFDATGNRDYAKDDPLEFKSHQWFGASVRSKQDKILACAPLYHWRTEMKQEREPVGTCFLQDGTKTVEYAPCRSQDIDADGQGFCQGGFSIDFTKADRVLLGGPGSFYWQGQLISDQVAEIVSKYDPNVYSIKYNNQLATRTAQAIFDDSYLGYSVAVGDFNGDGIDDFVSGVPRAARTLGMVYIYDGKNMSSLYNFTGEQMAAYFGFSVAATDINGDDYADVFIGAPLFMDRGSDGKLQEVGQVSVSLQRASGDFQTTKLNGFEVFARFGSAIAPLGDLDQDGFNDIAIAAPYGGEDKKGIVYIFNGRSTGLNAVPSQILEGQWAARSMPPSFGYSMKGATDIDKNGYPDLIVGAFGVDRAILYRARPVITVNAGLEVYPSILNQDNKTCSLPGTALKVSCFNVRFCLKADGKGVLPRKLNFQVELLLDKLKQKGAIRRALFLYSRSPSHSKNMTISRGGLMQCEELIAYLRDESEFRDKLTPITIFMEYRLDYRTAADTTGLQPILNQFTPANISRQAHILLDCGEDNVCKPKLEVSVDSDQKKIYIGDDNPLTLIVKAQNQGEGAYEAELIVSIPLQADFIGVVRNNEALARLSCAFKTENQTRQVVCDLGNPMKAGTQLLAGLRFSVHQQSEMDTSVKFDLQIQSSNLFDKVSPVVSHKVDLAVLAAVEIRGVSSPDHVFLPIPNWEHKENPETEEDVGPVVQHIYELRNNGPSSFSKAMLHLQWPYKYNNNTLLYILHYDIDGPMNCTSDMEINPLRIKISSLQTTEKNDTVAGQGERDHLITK
T2 sequence (P06756 891-1048 partner limits assumed): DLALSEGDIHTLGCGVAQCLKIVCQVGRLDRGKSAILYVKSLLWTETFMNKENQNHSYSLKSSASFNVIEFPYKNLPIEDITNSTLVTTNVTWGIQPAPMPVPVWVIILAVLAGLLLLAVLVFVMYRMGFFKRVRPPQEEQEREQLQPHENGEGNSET
T2 sequence (P05106 27-788): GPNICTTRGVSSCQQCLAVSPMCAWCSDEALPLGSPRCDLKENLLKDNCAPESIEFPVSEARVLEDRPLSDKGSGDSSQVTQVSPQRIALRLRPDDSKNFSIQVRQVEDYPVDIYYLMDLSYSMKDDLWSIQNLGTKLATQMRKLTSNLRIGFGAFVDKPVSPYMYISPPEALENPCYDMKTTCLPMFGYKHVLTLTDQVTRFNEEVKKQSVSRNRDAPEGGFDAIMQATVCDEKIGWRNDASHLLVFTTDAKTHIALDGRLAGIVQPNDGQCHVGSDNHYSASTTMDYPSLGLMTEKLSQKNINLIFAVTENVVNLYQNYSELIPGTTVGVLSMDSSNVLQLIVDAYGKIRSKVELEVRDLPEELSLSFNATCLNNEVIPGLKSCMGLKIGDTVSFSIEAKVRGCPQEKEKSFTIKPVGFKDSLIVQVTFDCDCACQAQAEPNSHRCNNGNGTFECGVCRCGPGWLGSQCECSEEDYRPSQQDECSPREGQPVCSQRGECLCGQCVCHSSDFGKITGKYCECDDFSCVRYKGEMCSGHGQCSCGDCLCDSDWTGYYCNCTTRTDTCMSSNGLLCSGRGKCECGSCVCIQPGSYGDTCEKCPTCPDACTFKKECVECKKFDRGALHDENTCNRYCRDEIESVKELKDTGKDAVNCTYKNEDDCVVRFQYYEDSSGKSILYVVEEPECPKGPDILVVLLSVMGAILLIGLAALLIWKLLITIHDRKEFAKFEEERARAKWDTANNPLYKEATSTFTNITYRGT
Procedure: In Vitro Solid Phase Purified αvβ3 Binding Assay
as §1

T1 sequence (P06756 31-889 limits assumed): as the sequence (P06756 31-889 limits assumed) above
T1 sequence (P06756 891-1048 partner limits assumed): as the sequence (P06756 891-1048 partner limits assumed) above
T1 sequence (P18084 24-799): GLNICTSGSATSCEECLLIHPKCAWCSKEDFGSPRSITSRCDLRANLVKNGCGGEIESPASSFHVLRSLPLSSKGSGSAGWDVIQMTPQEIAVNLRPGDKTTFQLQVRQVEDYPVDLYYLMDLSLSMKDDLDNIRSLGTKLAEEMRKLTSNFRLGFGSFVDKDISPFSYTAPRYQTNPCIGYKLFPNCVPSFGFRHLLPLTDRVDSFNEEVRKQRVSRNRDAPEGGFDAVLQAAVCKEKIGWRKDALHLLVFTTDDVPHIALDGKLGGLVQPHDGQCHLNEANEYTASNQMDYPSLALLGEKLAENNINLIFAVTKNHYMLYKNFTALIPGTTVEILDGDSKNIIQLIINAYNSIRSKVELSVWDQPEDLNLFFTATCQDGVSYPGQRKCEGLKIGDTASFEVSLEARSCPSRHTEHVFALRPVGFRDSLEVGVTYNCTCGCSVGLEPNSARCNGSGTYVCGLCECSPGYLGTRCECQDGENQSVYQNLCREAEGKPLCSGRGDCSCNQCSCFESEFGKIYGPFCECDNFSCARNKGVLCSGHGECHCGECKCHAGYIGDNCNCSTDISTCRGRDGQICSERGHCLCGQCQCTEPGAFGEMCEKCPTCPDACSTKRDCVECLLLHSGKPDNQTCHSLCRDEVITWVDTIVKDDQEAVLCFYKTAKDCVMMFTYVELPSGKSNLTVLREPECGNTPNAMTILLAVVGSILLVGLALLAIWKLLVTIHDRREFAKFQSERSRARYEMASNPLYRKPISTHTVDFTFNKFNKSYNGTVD

| SMILES | IC50 (human purified αVβ5) [nM] | IC50 (Human αvβ3) [nM] | IC50 (Human αvβ3; inhibition of 2 nM vitronectin binding to immobilized αvβ3) [nM] | Antagonist activity αVβ3, % @ 50 μM (Human αvβ3) |
| --- | --- | --- | --- | --- |
| O=C(O)CC1c2ccccc2C2CN(C(=O)CCc3ccc4c(n3)NCCC4)CCC12 (racemic) [Cpd 4] | 189 | 87 | – | – |
| O=C(O)CC1c2ccccc2C2CN(C(=O)CCc3ccc4c(n3)NCCC4)CC12 (racemic) [Cpd 12] | 15 ± 2 | 26 ± 8 | – | – |
| O=C(O)CC1c2ccccc2C2CN(C(=O)CCCc3ccc4c(n3)NCCC4)CC12 (racemic) [Cpd 15] | 538 | 411 | – | – |
| O=C(O)C[C@@H]1c2ccccc2[C@@H]2CN(C(=O)Cc3cccc(NC4=NCCCN4)c3)CC[C@H]12 (single isomer, unassigned) [Cpd 1, (3-{2-[3-(1,4,5,6,-Tetrahydro-pyrimidin-2-ylamino)-phenyl]-acetyl}-2,3,4,4a,9,9a-hexahydro-1H-3-aza-fluoren-9-yl)-acetic acid] | 1020 ± 180 | 66 ± 6 | – | – |
| O=C(O)C[C@H]1c2ccccc2[C@@H]2CN(C(=O)Cc3cccc(NC4=NCCCN4)c3)CC[C@H]12 (single isomer, unassigned) [Cpd 2, (3-{2-[3-(1,4,5,6,-Tetrahydro-pyrimidin-2-ylamino)-phenyl]-acetyl}-2,3,4,4a,9,9a-hexahydro-1H-3-aza-fluoren-9-yl)-acetic acid] | 217 ± 5 | 126 ± 40 | – | – |
| O=C(O)CC1c2ccccc2C2CN(C(=O)CCc3ccc4c(n3)NCCC4)CC12 (single isomer, unassigned) [Cpd 13, [2-(3-5,6,7,8-Tetrahydro-[1,8]naphthyrin-2-yl-propionyl)-1,2,3,3a,8,8a-hexahydro-2-aza-cyclopenta[a]inden-8-yl]-acetic acid] | 260 ± 60 | 290 ± 90 | – | – |
| O=C(O)CC1c2ccccc2C2CN(C(=O)CCCNc3ccccn3)CCC12 (stereo not drawn) [Cpd 6, {3-[4-(Pyridin-2-ylamino)-butyryl]-2,3,4,4a,9,9a-hexahydro-1H-3-aza-fluoren-9-yl}-acetic acid] | – | > 1 | – | – |
| O=C(O)CC1c2ccccc2C2CN(C(=O)CCCNc3ccccn3)CCC12 (stereo not drawn) [Cpd 7, {3-[4-(Pyridin-2-ylamino)-butyryl]-2,3,4,4a,9,9a-hexahydro-1H-3-aza-fluoren-9-yl}-acetic acid] | – | – | > 1 | – |
| O=C(O)C[C@H]1c2ccccc2[C@@H]2CN(C(=O)CCc3ccc4c(n3)NCCC4)C[C@H]12 [Cpd 14, [2-(3-5,6,7,8-Tetrahydro-[1,8]naphthyrin-2-yl-propionyl)-1,2,3,3a,8,8a-hexahydro-2-aza-cyclopenta[a]inden-8-yl]-acetic acid] | 5.8 ± 1.2 | 17 ± 3 | – | – |

Continued, values first:

| IC50 (human purified αVβ5) [nM] | IC50 (Human αvβ3) [nM] | IC50 (Human αvβ3; inhibition of 2 nM vitronectin binding to immobilized αvβ3) [nM] | Antagonist activity αVβ3, % @ 50 μM (Human αvβ3) | SMILES |
| --- | --- | --- | --- | --- |
| 230 ± 40 | 85 ± 8 | – | – | O=C(O)CC1c2ccccc2C2CN(C(=O)CCCc3ccc4c(n3)NCCC4)CCC12 (racemic) [Cpd 3] |
| – | > 1 | – | – | O=C(O)CC1c2ccccc2C2CCN(C(=O)CCc3ccc4c(n3)NCCC4)CC21 (racemic) [Cpd 11] |
| – | – | – | 41% @ | O=C(O)CC1c2ccccc2C2CCN(C(=O)CCCc3ccc4c(n3)NCCC4)CC21 (stereo not drawn) [Cpd 9, [2-(4-5,6,7,8-Tetrahydro-[1,8]naphthyridine-2-yl-butyryl)-2,3,4,4a,9,9a-hexahydro-1H-indeno[2,1-c]pyridin-9-yl]-acetic acid] |
| – | – | – | 51% @ 50 μM | O=C(O)CC1c2ccccc2C2CCN(C(=O)CCCc3ccc4c(n3)NCCC4)CC21 (stereo not drawn) [Cpd 10, [2-(4-5,6,7,8-Tetrahydro-[1,8]naphthyridine-2-yl-butyryl)-2,3,4,4a,9,9a-hexahydro-1H-indeno[2,1-c]pyridin-9-yl]-acetic acid] |

Reference: patent US7351711B2, “Tricyclic indanyls as integrin inhibitors” (Janssen Pharmaceutical, N.V., priority 2003, dated 2008)
